{"source": "paper PMC10613275", "about": "(Scientific Reports, 2023)", "key": {"[1]": {"test_system": "CHO-K1 cells (hprt gene)", "assay": "CHO/HPRT mutation assay", "type": "cell-based, Chinese hamster", "conditions": "3MC 2 µg/ml"}, "[2]": {"test_system": "CHO-K1 cells (hprt gene)", "assay": "CHO/HPRT mutation assay", "type": "cell-based, Chinese hamster", "conditions": "Table 4, With S9; lilial 500 µM, 3MC 2 µg/ml", "description": "The test with metabolic activation was performed as described in the OECD protocol, the ASTM standard[23] and other protocols[30],[31] and publications. For the test, cryopreserved CHO-K1 cells after the mutant cleansing were used. Mutant cleansing was performed according to[30], i.e. cells were cultivated three days in HAT medium, one day in HT medium and then frozen.\nOne passage after the thawing, 1 × 10^6 cells were seeded in 60 mm cultivation plates as described in[32]. […] The final concentration of the solvent, DMSO, was 1%. […] EMS at final concentration 2 mM as recommended in[31] served as a positive control. 3-MC at final concentration […][22] served as a positive control for metabolic activation. 1% DMSO was used as a VC. Sole cultivation medium served as a negative control (NC). After 4 h, the medium with tested substances was removed, plates were washed with PBS and fresh medium with 10% FBS was added.\nDuring the expression period (1 week), the cells on all 60 mm plates were passaged once. On day 8, cells were trypsinized, resuspended, counted and 2 × 10^5 cells of each plate were seeded on 60 mm plates in triplicates in the presence of a selective agents, 6-TG (30 µM) as described in[32]. […] 300 cells without the selective agent were seeded in a parallel to evaluate plating efficiency (PE). On day 15, the plates were washed with PBS, cells were fixed with ice cold methanol for 10 min and stained with 0.05% crystal violet in water for 30 min[33]. After washing with water, formed colonies were counted using Schuett Count (Schuett-biotec, Göttingen, Germany). Calculations were done as described in[29]. PE was calculated according to a general Eq. 1. Particular PE at selective conditions was calculated according to Eq. 2. Particular PE at non-selective conditions was calculated according to Eq. 3. Mutation frequency (MF) was calculated according to Eq. 4.1 PE=numberofcoloniesformed/numberofcellsplated 2 PEselective=numberofmutantcoloniesNMC/200,000 3 PEnon-selective=numberofcoloniesformed/300 4 MF=PEselectiveconditions/PEnon-selectiveconditions"}, "[3]": {"test_system": "androgen receptor", "assay": "Androgenic activity, transactivation luciferase assay in MDA-kb2", "conditions": "MDA-kb2, positive control", "description": "Results were expressed as fold induction (FI), i.e. fold increase compared to vehicle control. According to EPA[28], FI of positive control should be above 4 to meet the performance standard."}, "[4]": {"test_system": "CHO-K1 cells", "type": "cell-based, Chinese hamster", "conditions": "lilial 100 µM, PC 30 μM; for Fold, mean (γH2AX over negative control): above 1.5 indicates genotoxicity", "description": "(§1) Briefly, HeLa and CHO-K1 cells were seeded at a concentration of 1 × 10^5 cells/ml into the 96-well plates. CHO-K1 cells were used for comparison with HPRT test. HeLa cells were recommended by the manufacturer of the kit. After 24 h, cells were rinsed with PBS and cultivation medium (“Cell lines” Section) without ATB, with a reduced content of FBS (5%) was added. 30 µM valinomycin (in DMSO) was used as a positive control Samples were applied in the presence of non-toxic sample concentrations, i.e. 100 µM either with or without S9 mix. […] Cells were photographed using a fluorescence microscope (Olympus IX83); filters: DAPI (500 ms) and Cy3 (500 ms). Bioimage analysis in ImageJ software was performed as described previously."}, "[5]": {"test_system": "HeLa cells", "assay": "γH2AX biomarker-based genotoxicity assay, HeLa", "type": "cell-based, human", "conditions": "PC 30 μM; for Fold, mean (γH2AX over negative control): above 1.5 indicates genotoxicity", "description": "as §1"}, "[6]": {"test_system": "RPTEC/TERT1 cells", "assay": "Nephrotoxicity, RT-qPCR of kidney damage biomarkers", "type": "cell-based, human", "conditions": "100 µM, 48 h, normalized to GAPDH and ACTB", "description": "RPTEC/TERT1 cells were seeded at a concentration of 2 × 10^5 cells/ml in ProxUp2 medium into 60 mm Petri dishes. After 24 h, the cells were washed with PBS and […] metabolites (100 μM) were applied in fresh ProxUp2 medium. The cells were incubated with samples for 48 h, after which the cells were washed with PBS and dishes were frozen in - 160 °C. The RNA was isolated using RNeasy Plus Mini Kit (Qiagen, Hilden, Germany). The RNA concentration and purity was determined with NanoDrop One (ThermoFisher Scientific) spectrophotometr. The cDNA synthesis was performed from 0.1 μg of total RNA with an iScript Reverse Transcription Supermix (Bio-Rad, Hercules, California, USA). Quantitative real-time PCR (qPCR) was performed using the qPCR Bio-Rad C100 Touch System (Bio-Rad) with a 96-well block. The reaction mixture consisted of 1 μl of specific 20 × PrimePCR Assay (Bio-Rad), 10 μl of 2 × SsoAdvance Universal Supermix (Bio-Rad), 2 μl of cDNA sample, 7 μl of nuclease-free water. The final reaction volume was 20 μl. […] Cycling parameters were: initial denaturation at 95 °C for 2 min, followed by 40 cycles of 95 °C for 5 s and 60 °C for 30 s. Fluorescence values were acquired after each extension phase. Samples were analyzed in triplicate, and samples with a standard deviation of duplicates > 0.2 Ct were re-analyzed. A non-template control containing nuclease-free water instead of cDNA as well as non-RT control containing purified RNA without reverse transcription was used. The real-time PCR study followed the MIQE guidelines. Relative transcript levels of the estimated genes in the cell lines were compared using the software CFX Maestro Software 2.3 (Bio-Rad)."}, "[7]": {"set-up": "method as in PMID 32763837", "conditions": "children and adolescents in Germany ref 40; cited from earlier work"}, "[8]": {"test_system": "rats", "conditions": "rats ref 41; cited from earlier work"}, "[9]": {"test_system": "MCF-7 human breast cancer cells", "conditions": "lilial 100 µM, estrogen 10 nM; unaffected control 1.8 doublings ref 8; cited from earlier work"}, "[10]": {"conditions": "Table 4, Without S9, lilial 500 µM"}}, "note": "Like-named read-outs stand apart in the source and are kept apart here. Marks after values point to notes of the source that are not given here."}
{"compound": "Cc1ccc2cc3c(ccc4ccccc43)c3c2c1CC3", "note": "[3MC, 3-methylcholanthren]", "values": [{"measurement": "MF (/106) mutation frequency", "setting": "[1]; Table 4, With S9, lilial 500 µM", "result": "152 ± 14 /106"}, {"measurement": "MF (/10^6) mutation frequency", "setting": "[1]; Table 4, Without S9", "result": "25 ± 31 /10^6"}, {"measurement": "NMC (number of mutant colonies)", "setting": "[1]; [10]", "result": "3 ± 4"}, {"measurement": "PE (%) plating efficiency", "setting": "[1]; [10]", "result": "66 ± 3", "unit": "%"}, {"measurement": "NMC (number of mutant colonies)", "setting": "[2]", "result": "17 ± 2"}, {"measurement": "PE (%) plating efficiency", "setting": "[2]", "result": "55 ± 4", "unit": "%"}]}
{"compound": "C[C@]12CCC(=O)C[C@@H]1CC[C@@H]1[C@@H]2CC[C@]2(C)[C@@H](O)CC[C@@H]12", "note": "[DHT, dihydrotestosterone, reference compound]", "values": [{"measurement": "Concentration from which fold induction (FI) significantly increased", "setting": "[3]", "result": "≥ 0.5", "unit": "nM"}]}
{"compound": "CC(C)[C@@H]1NC(=O)[C@H](C)OC(=O)[C@@H](C(C)C)NC(=O)[C@@H](C(C)C)OC(=O)[C@H](C(C)C)NC(=O)[C@H](C)OC(=O)[C@@H](C(C)C)NC(=O)[C@@H](C(C)C)OC(=O)[C@H](C(C)C)NC(=O)[C@H](C)OC(=O)[C@@H](C(C)C)NC(=O)[C@@H](C(C)C)OC1=O", "note": "[PC, valinomycin]", "values": [{"measurement": "MoA (mean fluorescence values over area of the nuclei)", "setting": "[4]; CHO-K1, 4h_S9", "result": 0.99}, {"measurement": "RA (%), mean (relative area of nuclei)", "setting": "[4]; CHO-K1, 4h_S9", "result": 90.8, "unit": "%"}, {"measurement": "Fold, mean (γH2AX over negative control)", "setting": "[4]; CHO-K1, 4h_S9", "result": 1.35}, {"measurement": "MoA (mean fluorescence values over area of the nuclei)", "setting": "[4]; CHO-K1, 4 h, without S9", "result": 1.14}, {"measurement": "RA (%), mean (relative area of nuclei)", "setting": "[4]; CHO-K1, 4 h, without S9", "result": 75.3, "unit": "%"}, {"measurement": "Fold, mean (γH2AX over negative control)", "setting": "[4]; CHO-K1, 4 h, without S9", "result": 1.45}, {"measurement": "MoA (mean fluorescence values over area of the nuclei)", "setting": "[4]; CHO-K1, 24 h", "result": 5.26}, {"measurement": "RA (%), mean (relative area of nuclei)", "setting": "[4]; CHO-K1, 24 h", "result": 48.5, "unit": "%"}, {"measurement": "Fold, mean (γH2AX over negative control)", "setting": "[4]; CHO-K1, 24 h", "result": 4.43}, {"measurement": "MoA (mean fluorescence values over area of the nuclei)", "setting": "[5]; 4h_S9, lilial 100 µM", "result": "0.29**"}, {"measurement": "RA (%), mean (relative area of nuclei)", "setting": "[5]; 4h_S9, lilial 100 µM", "result": 97.8, "unit": "%"}, {"measurement": "Fold, mean (γH2AX over negative control)", "setting": "[5]; 4h_S9, lilial 100 µM", "result": 2.94}, {"measurement": "MoA (mean fluorescence values over area of the nuclei)", "setting": "[5]; 4 h, without S9, lilial 100 µM", "result": "0.13*"}, {"measurement": "RA (%), mean (relative area of nuclei)", "setting": "[5]; 4 h, without S9, lilial 100 µM", "result": 95.8, "unit": "%"}, {"measurement": "Fold, mean (γH2AX over negative control)", "setting": "[5]; 4 h, without S9, lilial 100 µM", "result": 2.63}, {"measurement": "MoA (mean fluorescence values over area of the nuclei)", "setting": "[5]; 24 h, lilial 100 µM", "result": "0.55*"}, {"measurement": "RA (%), mean (relative area of nuclei)", "setting": "[5]; 24 h, lilial 100 µM", "result": 101.5, "unit": "%"}, {"measurement": "Fold, mean (γH2AX over negative control)", "setting": "[5]; 24 h, lilial 100 µM", "result": 24.03}]}
{"compound": "CN(C)[C@@H]1C(O)=C(C(N)=O)C(=O)[C@@]2(O)C(O)=C3C(=O)c4c(O)cccc4[C@@](C)(O)[C@H]3C[C@@H]12", "note": "[Tetracycline]", "values": [{"measurement": "Relative fold gene expression, CLU", "setting": "[6]", "result": "4.09*"}, {"measurement": "Relative fold gene expression, CST3", "setting": "[6]", "result": "1.64*"}, {"measurement": "Relative fold gene expression, HMOX", "setting": "[6]", "result": "4.93**"}, {"measurement": "Relative fold gene expression, IL6", "setting": "[6]", "result": 1.70}, {"measurement": "Relative fold gene expression, IL8", "setting": "[6]", "result": 1.19}, {"measurement": "Relative fold gene expression, IPO8", "setting": "[6]", "result": "1.41**"}, {"measurement": "Relative fold gene expression, TIMP1", "setting": "[6]", "result": 1.31}]}
{"compound": "CC(Cc1ccc(C(C)(C)CO)cc1)C(=O)O", "note": "(stereo not shown) [hydroxy-lysmerylic acid]", "values": [{"measurement": "Geometric mean concentration in urine", "setting": "[7]", "result": "< 0.4", "unit": "µg/L"}]}
{"compound": "CC(Cc1ccc(C(C)(C)C)cc1)C(=O)O", "note": "(stereo not shown) [lysmerylic acid]", "values": [{"measurement": "Geometric mean concentration in urine", "setting": "[7]", "result": "< 0.2", "unit": "µg/L"}]}
{"compound": "CC(C)(C)c1ccc(C(=O)O)cc1", "note": "[p-tert-butylbenzoic acid]", "values": [{"measurement": "Geometric mean concentration in urine", "setting": "[7]", "result": 10.21, "unit": "µg/L"}, {"measurement": "Effects on male reproduction", "setting": "[8]", "result": "adverse effects on male reproduction"}]}
{"compound": "estrogen [reference compound]", "values": [{"measurement": "Cell doublings", "setting": "[9]", "result": 5.2, "unit": "doublings"}]}
